In publication PMC7011873, “LC-MS–MS and GC-MS analyses of biologically active extracts and fractions from Tunisian Juniperus phoenice leaves” (Pharmaceutical Biology, 2016):

Columns and labels:
[1] = DPPH radical-scavenging effect assay; conditions: 30 min incubation at room temperature, absorbance at 517 nm
Protocol: DPPH (1,1-diphenyl-2-picrylhydrazyl) radical-scavenging effect was evaluated following the procedure described in a previous study (Feki et al. [2005]). Various concentrations of extracts and fractions (5 μL) dissolved in methanol were added to 5 mL of a 0.004% methanol solution of DPPH. After a 30 min incubation period at room temperature, the absorbance was read against a blank at 517 nm. Inhibition of free radical, DPPH, in percent (I%) was calculated as follows: I% = (Ablank-Asample/Ablank)×100 where Ablank is the absorbance of the control reaction (containing all reagents except the studied sample) and Asample is the absorbance of the studied sample. Extract concentration providing 50% inhibition (IC50) was calculated from the graph plotted of inhibition percentage against extract concentration. The synthetic antioxidant reagents BHT and vitamin E were used as positive control and all tests were carried out in triplicate.

[2] = molecular target: T1, porcine pancreatic α-amylase (PPA) (Sus scrofa, UniProt P00690); experiment: α-Amylase inhibition assay by CNPG3 method; format: biochemical
T1 construct: purchased Sigma-Aldrich (St. Louis, MO)
T1 sequence (P00690 16-511): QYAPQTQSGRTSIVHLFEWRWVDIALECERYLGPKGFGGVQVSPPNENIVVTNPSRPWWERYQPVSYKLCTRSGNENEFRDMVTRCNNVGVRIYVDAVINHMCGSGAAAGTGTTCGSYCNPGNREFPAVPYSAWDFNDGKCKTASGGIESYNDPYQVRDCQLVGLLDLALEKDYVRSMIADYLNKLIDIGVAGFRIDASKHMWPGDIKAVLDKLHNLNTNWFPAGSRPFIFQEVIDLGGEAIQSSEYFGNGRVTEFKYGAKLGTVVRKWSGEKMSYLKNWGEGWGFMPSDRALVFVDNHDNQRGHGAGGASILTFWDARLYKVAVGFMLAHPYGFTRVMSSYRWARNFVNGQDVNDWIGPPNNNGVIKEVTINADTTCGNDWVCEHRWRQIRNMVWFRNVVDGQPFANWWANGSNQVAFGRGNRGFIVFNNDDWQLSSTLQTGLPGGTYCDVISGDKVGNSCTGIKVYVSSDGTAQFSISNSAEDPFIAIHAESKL
Protocol: The studied sample was dissolved in DMSO to give concentrations of 50, 100, and 200 mg/mL. The enzyme solution was prepared by mixing α-amylase in 100 mL of 40 mM phosphate buffer, pH 6.9. The assays were measured by mixing 80 mL of the studied sample, 20 mL of α-amylase solution, and 1 mL of 2-chloro-4-nitrophenol-α-D-maltotrioside (CNPG3). The mixture was incubated at 37 °C for 5 min. The absorbance was measured at 405 nm spectrophotometrically (Jenway 6405 UV/Visible, Staffordshire, UK). […] Percentage inhibition was calculated by the following expression and all tests were carried out in triplicate: PI = [(AbsorbanceControl-AbsorbanceTest)/AbsorbanceControl] × 100

[3] = tested on: α-glucosidase; design: method as in Kim et al. ([2000]); conditions: ref Kim et al. ([2000]); cited from earlier work

Structure (SMILES)	DPPH IC50 [1] [µg/mL]	IC50 [2] [µM]	inhibitory activity against α-glucosidase [3]
O=c1cc(-c2ccc(O)c(-c3c(O)cc(O)c4c(=O)cc(-c5ccc(O)cc5)oc34)c2)oc2cc(O)cc(O)c12 [Amentoflavone]	14.1 ± 0.4	37.9	relatively important inhibitory activity
Cc1cc(C(C)(C)C)c(O)c(C(C)(C)C)c1 [BHT, butylate hydroxytoluene, reference compound]	18.1 ± 0.2	–	–
